Like-named read-outs stand apart in the source and are kept apart here.
Experiments:
BRD4(1) = biological target: T1, BRD4(1) (Homo sapiens, UniProt O60885); experiment: Inhibition of tetra-acetylated histone H4 binding to individual BET bromodomains (AlphaScreen); conditions: His-tagged BRD4(1) 20 nM, biotinylated tetra-acetylated histone H4 peptide, 30 min incubation; read-out: FRET activity BRD4(1)
T1 construct: N-terminally His-tagged bromodomains (BRD4(1) at 20 nM and BRD4(2) at 100 nM); made in house; host or cells: E. coli BL21(DE3)
Method: Proteins were cloned and overexpressed with a N-terminal 6×His tag, then purified by nickel affinity followed by size exclusion chromatography. Briefly, E. coli BL21(DE3) cells were transformed with a recombinant expression vector encoding N-terminally Nickel affinity tagged bromodomains from Brd2, Brd3, Brd4. Cell cultures were incubated at 37° C. with shaking to the appropriate density and induced overnight with IPTG. The supernatant of lysed cells was loaded onto Ni-IDA column for purification. Eluted protein was pooled, concentrated and further purified by size exclusion chromatography. Fractions representing monomeric protein were pooled, concentrated, aliquoted, and frozen at −80° C. for use in subsequent experiments.
Binding of tetra-acetylated histone H4 peptide (Millipore) and BET bromodomains was confirmed by Amplified Luminescent Proximity Homogenous Assay (AlphaScreen). N-terminally His-tagged bromodomains (BRD4(1) at 20 nM and BRD4(2) at 100 nM) and biotinylated tetra-acetylated histone H4 (10-25 nM) were incubated in the presence of nickel chelate acceptor beads and streptavidin donor beads (PerkinAlmer, 6760000K) added to a final concentration of 2 μg/mL under green light in a white 96 well microtiter plate (Greiner). For inhibition assays, serially diluted compounds were added to the reaction mixtures in a 0.1% final concentrations of DMSO. Final buffer concentrations were 50 mM HEPES, 100 mM NaCl and 0.1% BSA buffer, pH 7.4 and optimized to 30 min incubation time. Assay plates were read at 570 nm on a Synergy H4 Plate Reader (Biotek). IC50 values were determined from a dose response curve.

MV4-11 cells [1] = experiment: Washout proliferation: durability of proliferation inhibition in MV4-11 cells; format: cell-based; conditions: Homo sapiens
Method: FIG. 1 depicts inhibition of proliferation. […] MV4-11 cells were treated for 16 hours after which compounds were removed, cells washed 3 times with media, replaced with media and proliferation was measured at 72 h post washout.
MV4-11 cells (CRL-9591) were plated at a density of 5×10^4 cells per well in 96 well flat bottom plates and treated with increasing concentrations of compounds or DMSO (0.1%) in IMDM media containing 10% FBS and penicillin/streptomycin. Triplicate wells were used for each concentration and a well containing only media was used as a control. Plates were incubated at 37° C., 5% CO2 for 16 h after which the compounds were removed, replaced with media, and proliferation was measured at 72 hours post washout by adding 100 μL of the Cell Titer Fluor 96 Cell Viability Assay (Promega). After the incubation for 45 min at 37° C. with 5% CO2 fluorescence is read on the Synergy plate reader set at 380-400 nm Ex/505 nm. Percentage of cell viability to DMSO-treated cells was calculated after correcting for background by subtracting the blank well's signal. IC50 values were calculated using the GraphPad Prism software from the dose-dependent inhibition of proliferation.

BCL2 = experiment: Durability of BCL2 expression inhibition after washout in MV4-11 cells; format: cell-based; conditions: Homo sapiens
Method: (§1) MV4-11 cells were treated for 3 hours after which compounds were removed, cells washed with media 3 times, replaced with media; harvest was performed 5 hours post washout and the expression of MYC and BCL2 was determined.
(§2) MV4-11 cells (CRL-9591) were plated at a density of 2.5×10^4 cells per well in 96 well U-bottom plates and treated with increasing concentrations of test compound or DMSO (0.1%) in IMDM media containing 10% FBS and penicillin/streptomycin, and incubated for […] 37° C. after which the compounds are removed, replaced with media and cells were harvested at 5 hours post washout. Triplicate wells were used for each concentration. Cells were pelleted by centrifugation and harvested using the mRNA Catcher PLUS kit according to manufacturer's instructions. The eluted mRNA isolated was then used in a one-step quantitative real-time PCR reaction, using components of the RNA UltraSense™ One-Step Kit (Life Technologies) together with Applied Biosystems TaqMan® primer-probes for cMYC and Cyclophilin. Real-time PCR plates were run on a ViiA™7 real time PCR machine (Applied Biosystems), data was analyzed, normalizing the Ct values for MYC and BCL2 to an internal control, prior to determining the fold expression of each sample, relative to the control.

MYC = experiment: Durability of MYC expression inhibition after washout in MV4-11 cells; format: cell-based; conditions: Homo sapiens
Method: as §1, §2

cMYC = experiment: Inhibition of cMYC expression in cancer cell lines (MV4-11, real-time PCR); format: cell-based; conditions: Homo sapiens, read-out: Myc activity
Method: MV4-11 cells (CRL-9591) were plated at a density of 2.5×10^4 cells per well in 96 well U-bottom plates and treated with increasing concentrations of test compound or DMSO (0.1%) in IMDM media containing 10% FBS and penicillin/streptomycin, and incubated for 3 h at 37° C. Triplicate wells were used for each concentration. Cells were pelleted by centrifugation and harvested using the mRNA Catcher PLUS kit according to manufacturer's instructions. The eluted mRNA isolated was then used in a one-step quantitative real-time PCR reaction, using components of the RNA UltraSense™ One-Step Kit (Life Technologies) together with Applied Biosystems TaqMan® primer-probes for cMYC and Cyclophilin. Real-time PCR plates were run on a ViiA™7 real time PCR machine (Applied Biosystems), data were analyzed, normalizing the Ct values for cMYC to an internal control, prior to determining the fold expression of each sample, relative to the control.

MV4-11 cells [2] = experiment: Inhibition of cell proliferation in cancer cell lines (MV4-11, CellTiter Aqueous One); format: cell-based; conditions: Homo sapiens, read-out: Proliferation activity
Method: MV4-11 cells (CRL-9591) were plated at a density of 5×10^4 cells per well in 96 well flat bottom plates and treated with increasing concentrations of test compound or DMSO (0.1%) in IMDM media containing 10% FBS and penicillin/streptomycin. Triplicate wells were used for each concentration and a well containing only media was used as a control. Plates were incubated at 37° C., 5% CO2 for 72 h before adding 20 μL of the CellTiter Aqueous One Solution (Promega) to each well and incubating at 37° C., 5% CO2 for an additional 3-4 h. The absorbance was read at 490 nm in a spectrophotometer and the percentage of cell titer relative to DMSO-treated cells was calculated after correcting for background by subtracting the blank well's signal. IC50 values were calculated using the GraphPad Prism software.

IC50 (MV4-11 cells [1]; MV4-11 cells treated 16 h, washed, proliferation measured 72 h post washout, read-out: IC50 of inhibition of proliferation after 72 hours of compound removal) [µM] | IC50 (BCL2; MV4-11 cells treated 3 h, washed, harvested 5 h post washout, read-out: IC50 of BCL2 inhibition at 5 hours post washout) [µM] | IC50 (MYC; MV4-11 cells treated 3 h, washed, harvested 5 h post washout, read-out: IC50 of sustained MYC inhibition at 5 h post washout) [µM] | IC50 (cMYC; MV4-11 cells, 3 h incubation, cMYC mRNA) [µM] | IC50 (MV4-11 cells [2]; MV4-11 cells, 72 h incubation) [µM] | Structure (SMILES) | IC50 (BRD4(1)) [µM] | IC50 (MV4-11 cells [1]; MV4-11, read-out: IC50 of inhibition of proliferation after 72 hours of compound removal) [µM] | IC50 (BCL2; MV4-11, read-out: IC50 of BCL2 inhibition at 5 hours post washout) [µM] | IC50 (MYC; MV4-11, read-out: IC50 of sustained MYC inhibition at 5 h post washout) [µM] | IC50 (cMYC; MV4-11, 3 h) [µM] | IC50 (MV4-11 cells [2]; MV4-11, 72 h) [µM]
 |  |  |  |  | C=CC(=O)N(C)c1cnc2nc(N3CCCC3)n(Cc3ccccc3)c2c1 [Example 15, N-(1-Benzyl-2-(pyrrolidin-1-yl)-1H-imidazo[4,5-b]pyridin-6-yl)-N-methylacrylamide] | ≤ 0.3 | 5.98 | 7.9 | 23 | 0.3 to 3 | 0.3 to 3
~50 | ~50 | 29 | 0.3 to 3 | 0.3 to 3 | CC(=O)N(C)c1cnc2nc(N3CCCC3)n(Cc3ccccc3)c2c1 [Example 18, N-(1-Benzyl-2-(pyrrolidin-1-yl)-1H-imidazo[4,5-b]pyridin-6-yl)-N-methylacetamide] | ≤ 0.3 |  |  |  |  | 

Reference: US20190263799A1, “1H-IMIDAZO[4,5-B]PYRIDINYL AND 2-OXO-2,3-DIHYDRO-1H-IMIDAZO[4,5-B]PYRIDINYL HETEROCYCLIC BET BROMODOMAIN INHIBITORS” (ZENITH EPIGENETICS LTD., priority 2015, published 2019)
